Experimental data: PubChem BioAssay (NCI)
“And” between values parts separate entries of the source, which are not always exact repeats. Equal values may be shown once.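 Exposure lasted 48 hours, with cells grown in 96-well plates and compounds tested at five concentrations. Here, GI50 denotes the concentration required for 50% inhibition of growth. TGI is the concentration that stops growth completely.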 Where a SMILES comes first, the peptide text is derived from it. Bridges are numbered along the chain shown (N, C = ends). [ ]: non-standard residue; d: D form. The star is where a group is joined. ξ: configuration not given here. ξDab(CH2SO3H) = NC(CCNCS(=O)(=O)O)C(=O)O; Heptanoyl(6-Me) = CC(C)CCCCC(=O)*; Dab = NCC[CH](N)C(=O)O

Columns and labels:
Assay in all cases: NCI-60 cell line screen, 48 h
A498 renal = tested on: A498 renal
SK-MEL-5 melanoma = tested on: SK-MEL-5 melanoma
M14 melanoma = tested on: M14 melanoma
MDA-MB-435 = tested on: MDA-MB-435
BT-549 breast = tested on: BT-549 breast
MOLT-4 leukemia = tested on: MOLT-4 leukemia
OVCAR-5 ovarian = tested on: OVCAR-5 ovarian
U251 CNS = tested on: U251 CNS
SF-295 CNS = tested on: SF-295 CNS
HS 578T breast = tested on: HS 578T breast

SMILES | GI50 (A498 renal) | TGI (A498 renal) | GI50 (SK-MEL-5 melanoma) | TGI (SK-MEL-5 melanoma) | GI50 (M14 melanoma) | TGI (M14 melanoma) | GI50 (MDA-MB-435) | TGI (MDA-MB-435) | GI50 (BT-549 breast) | TGI (BT-549 breast) | GI50 (MOLT-4 leukemia) | TGI (MOLT-4 leukemia) | GI50 (OVCAR-5 ovarian) | TGI (OVCAR-5 ovarian) | GI50 (U251 CNS) | TGI (U251 CNS) | GI50 (SF-295 CNS) | TGI (SF-295 CNS) | GI50 (HS 578T breast) | TGI (HS 578T breast)
CCC(C)C1NC(=O)C(CCNCS(=O)(=O)O)NC(=O)C(NC(=O)C(CCNCS(=O)(=O)O)NC(=O)C(NC(=O)C(CCNCS(=O)(=O)O)NC(=O)CCCCC(C)C)C(C)O)CCNC(=O)C(C(C)O)NC(=O)C(CCNCS(=O)(=O)O)NC(=O)C(CCNCS(=O)(=O)O)NC(=O)C(C(C)CC)NC1=O (configuration not stated) ({Heptanoyl(6-Me)}-[ξDab(CH2SO3H)]T[ξDab(CH2SO3H)][Dab][ξDab(CH2SO3H)]II[ξDab(CH2SO3H)][ξDab(CH2SO3H)]T; lactam 4-C; configuration not given here) | 7.07 µM | > 25 µM | 1.96 µM | 11.4 µM | 5.72 µM | 20.6 µM | 0.93 µM | 5.02 µM | 6.27 µM | > 25 µM | 8.47 µM | > 25 µM | 24 µM | > 25 µM | 8.05 µM | > 25 µM | 6.66 µM | > 25 µM | 7.65 µM | > 25 µM
Cc1ccc(NC(=O)c2cc3ccccc3c(N=Nc3cc(S(=O)(=O)O)ccc3O)c2O)c(C)c1 | – | > 100 µM | – | > 100 µM | – | 37.4 µM | – | > 100 µM | – | > 100 µM | – | > 100 µM | – | 89.2 µM | – | > 100 µM | – | 88.9 µM | – | > 100 µM
COc1ccc2c(c1)oc(=O)c1cc(OC)ccc12 | 1.56 µM | 99 µM | 65.2 µM | > 100 µM | > 100 µM | > 100 µM | > 100 µM | > 100 µM | > 100 µM | > 100 µM | > 100 µM | > 100 µM | > 100 µM | > 100 µM | > 100 µM | > 100 µM | > 100 µM | > 100 µM | > 100 µM | > 100 µM
COc1cc2ncnc(Nc3cccc(Cl)c3F)c2cc1OC(=O)N1CCN(C)C[C@H]1C | 3.44 µM | > 45.1 µM | > 39.8 µM | > 56.9 µM | > 40.9 µM | > 62.8 µM | > 40.7 µM | > 59.7 µM | > 42.2 µM | > 67.2 µM | > 46.2 µM | > 81.3 µM | > 32.7 µM | > 90.8 µM | > 44.2 µM | > 64.5 µM | > 38.1 µM | > 56 µM | 21 µM | > 60.8 µM
COc1cccc(/C=N/NC(=O)c2ccccc2N2CCCC2)c1O | 4.97 µM | > 100 µM | 5.3 µM | 24.4 µM | 3.08 µM | 24.2 µM | 18.3 µM | > 100 µM | 12.6 µM | > 100 µM | 1.52 µM | > 100 µM | 9.72 µM | > 100 µM | 4.27 µM | > 100 µM | 4.88 µM | > 100 µM | 10.3 µM | 68.8 µM
COc1ccc(Nc2cc(C)nc(NCc3ccccc3)n2)cc1 | 1.83 µM | 13.6 µM | 1.36 µM | 2.84 µM | 2.11 µM | 7.52 µM | 3.16 µM | 13 µM | 4.42 µM | 17.7 µM | 5.5 µM | 26.9 µM | 5.31 µM | 20.1 µM | 3.13 µM | 14.3 µM | 2.57 µM | 15.3 µM | 11 µM | 39.2 µM
CC/C(=C(/c1ccc(O)cc1)c1ccc(OCCN)cc1)c1ccccc1 | 2.49 µM | 16.8 µM | 1.97 µM | 4.3 µM | 1.81 µM | 3.48 µM | 1.63 µM | 3.42 µM | 6.31 µM | 19.6 µM | 3 µM | 9.07 µM | 6.26 µM | 20.2 µM | 1.82 µM | 3.86 µM | 1.86 µM | 4 µM | 2.82 µM | 12.8 µM
O=[N+]([O-])c1ccc(C2=Nn3c(nnc3-c3ccc(Cl)cc3)SC2)o1 | – | 31.3 µM | – | 25.3 µM | – | 14.3 µM | – | 4.39 µM | – | 23.9 µM | – | 8.59 µM | – | 33.8 µM | – | 31.5 µM | – | 23.5 µM | – | 18.4 µM
C[C@@H]1CCC([C@@H](C)[C@H]2CC[C@H]3[C@@H]4CC[C@H]5C[C@@H](O)CC[C@]5(C)[C@H]4CC[C@]23C)=NC1 | – | > 100 µM | – | 42.8 µM | – | > 48.9 µM | – | > 100 µM | – | > 85 µM | – | > 66 µM | – | > 100 µM | – | > 86.4 µM | – | > 43.6 µM | – | > 100 µM
CCOC(=O)Nc1nc2ccc(Br)cc2s1 | > 50 µM | > 50 µM | > 50 µM | > 50 µM | > 50 µM | > 50 µM | > 50 µM | > 50 µM | > 50 µM | > 50 µM | > 50 µM | > 50 µM | > 50 µM | > 50 µM | > 50 µM | > 50 µM | > 50 µM | > 50 µM | > 50 µM | > 50 µM
CCc1nc(N)nc(N)c1-c1ccc2nnn(O)c2c1 | – | > 100 µM | – | > 100 µM | – | > 100 µM | – | > 100 µM | – | > 100 µM | – | > 100 µM | – | > 100 µM | – | > 100 µM | – | > 100 µM | – | > 100 µM
C[C@]12CC[C@@H]3c4cc(O)c(O)cc4CC[C@H]3[C@@H]1CC[C@@H]2O | 19.7 µM | 62.3 µM | 3.54 µM | 16.1 µM | 1.35 µM | > 100 µM | 0.286 µM | 1.1 µM | 1.78 µM | 42.3 µM | 3.51 µM | 77.2 µM | 25 µM | > 100 µM | 6.86 µM | 35.1 µM | 7.19 µM | 32.9 µM | 1.98 µM | 17.5 µM
CCCCCCCCCCCC(=O)N1CCN(C(C)=O)CC1 | 62.7 µM | > 100 µM | 23.7 µM | 38.9 µM | 17.6 µM | 33 µM | 20.4 µM | 40.9 µM | 24.6 µM | 58.1 µM | 20.8 µM | 47.8 µM | 21.2 µM | 48.5 µM | 50.5 µM | > 100 µM | 26.6 µM | 63 µM | 21.5 µM | 48.4 µM
COc1cc2c(cc1Cc1cccc(Cl)c1F)c(=O)c(C(=O)O)cn2[C@@H](CO)C(C)C | 2.26 µM | 14.2 µM | 2.85 µM | 8.88 µM | 3.65 µM | 15 µM | 3.84 µM | 15.2 µM | 2.09 µM | 8.66 µM | 4.67 µM | 18.5 µM | 4.28 µM | 15.4 µM | 3.17 µM | 12.2 µM | 2.14 µM | 5.53 µM | 3.97 µM | 32.7 µM
S=C(NCCNC(=S)[S][Sn]([c]1ccccc1)([c]1ccccc1)[c]1ccccc1)[S][Sn]([c]1ccccc1)([c]1ccccc1)[c]1ccccc1 | 0.0231 µM | 0.0849 µM | 0.0432 µM | 0.108 µM | 0.0267 µM | 0.0976 µM | 0.0153 µM | 0.0559 µM | 0.0799 µM | 0.183 µM | 0.0222 µM | 0.309 µM | 0.0496 µM | 0.123 µM | 0.0187 µM | 0.064 µM | 0.099 µM | 0.227 µM | 0.0564 µM | 0.461 µM
CC1=CCCC2C1(C)CCC(C)C2(C)Cc1cc(O)ccc1O (configuration not stated) | – | 32.9 µM and 30.3 µM | 10.6 µM | 27.7 µM and 24.9 µM | – | 29.5 µM | – | 27 µM | – | 16.2 µM | – | 21 µM and 8.36 µM | – | 28.7 µM and 38.9 µM | – | 15.4 µM and 16.5 µM | 10.4 µM | 23.5 µM and 21 µM | – | 17.9 µM
COC(=O)C1=CO[C@@H](OC2OC(CO)C(O)C(O)C2O)[C@H]2[C@@H](C)[C@@H](O)[C@@H](O)[C@@H]12 (some centres not stated) | – | > 100 µM | – | > 100 µM | – | > 100 µM | – | > 100 µM | – | > 100 µM | – | > 100 µM | – | > 100 µM | – | > 100 µM | – | > 100 µM | – | > 100 µM
Cc1ccc(-c2cc3c4c(nc5ccccc53)C(=O)c3cccnc3-c4n2)cc1 | 11.8 µM | 32.7 µM | 1.67 µM | 3.89 µM | 4.37 µM | 16.5 µM | 5.08 µM | 16 µM | 17.4 µM | 41 µM | 0.583 µM | > 100 µM | 23 µM | 60.9 µM | 9.51 µM | > 66.9 µM | 12.4 µM | 25.7 µM | 18.3 µM | 43.8 µM
C=C1C(=O)O[C@H]2[C@H]1CC/C(C=Nc1c(N)cc(C(F)(F)F)cc1C(F)(F)F)=C\CC[C@@]1(C)O[C@@H]21 | 1.49 µM | 3.51 µM | 1.35 µM | 2.67 µM | 1.73 µM | 3.67 µM | 2.03 µM | 6.05 µM | 1.47 µM | 3.17 µM | 0.517 µM | > 100 µM | 1.87 µM | 4.59 µM | 1.56 µM | 2.98 µM | 5.1 µM | 17.1 µM | 1.67 µM | 7.45 µM
